Like-named read-outs stand apart in the source and are kept apart here.
Assays:
Assay type in all cases: in vivo, Kunming mice
HCMV infected mice [1] = test: IL-2 level in serum of HCMV infected mice (ELISA kit); conditions: for IL-2 concentration: 21 days; for IL-2 level compared with the positive drug control group (in words): ganciclovir 45.5 mg/kg/d as comparator
Procedure: (§1) The mice were injected with HCMV10^−3 (0.1 ml/mouse) through the caudal vein of mouse tails; 0.9% normal saline is injected to the normal control group, 0.1 ml/piece; and intragastric administration is started according to the determined dosage on the second day of infection, with 21 days of medication.
Selecting six mice in each group randomly for sampling, 40 min later after the last administration, picking eyeballs to take blood, and collecting the blood by a centrifugal tube Performing high-speed centrifugation for 5 min at 3000 r/min after blood coagulation, and taking the serum. The IL-2 in the serum is measured according to the manual of an ELISA kit.
1L-2, namely interleukin-2, is also named T cell growth factor (TCGF), is a cell factor with wide biological activity, which is generated by activated CD4+Th1 cells, and can promote the proliferation of Th0 and CTL, thus being an important factor for regulating and controlling immune responses.

HCMV infected mice [2] = test: Survival rate and weight of HCMV infected mice; conditions: for Average animal weight (g) Termination of treatment: HCMV infected mice; for Average animal weight (g) Termination of treatment / Animal number (n) Termination of treatment: 21 days; for Animal number (n) Termination of treatment: surviving of 10 HCMV infected mice; for Toxic symptoms, death and weight growth of treated HCMV infected mice (in words): 21 days of intragastric administration, compared with model group
Procedure: 1.3 Virus standard strain HCMVADI69 and the proliferation of species are introduced in October 1999 from Virus Seed Room of Virus Institute in Chinese Academy of Preventive Medicine. […] HEL cultural supernatant reaching +++−++++ in the cell lesions is discarded and lightly washed for 3 times by PBS; double distilled water is added; freeze-thawing is performed for 3 times at −20° C.; vigorous blowing and beating are performed; 10,000 r/min centrifugation is performed at 4° C. for 20 min; and the supernatant is collected to obtain the standard virus strain.
as §1
(§2) During the experiment. Animals were weighed and the thymus and spleen were weighed on the 21st day of administration, and their indices (thymus index, spleen index, weight of thymus and spleen organs per 10 g body weight (mg)) were measured.
Recording the number of dead animals in the experimental process.
All the mice are subjected to the medicines continuously for 21 days in the whole experimental process.

HCMV infected mice [3] = conditions: for Hemolysin (OD value): serum of HCMV infected mice, 540 nm, 21 days; for Level of serum hemolysin antibodies compared with the positive drug control group (in words): HCMV infected mice, ganciclovir 45.5 mg/kg/d as comparator
Procedure: as §1
40 min later after the last administration, picking eyeballs to take blood, collecting serum, diluting the serum for 100 times with normal saline, uniformly mixing 1 mL of the diluted serum, 0.5 mL of 5% chicken erythrocyte suspension and 0.5 mL of 10% complement (guinea pig serum), incubating for 30 min In 37° C. incubator, setting 0° C. refrigerator for 30 min to stop the reaction. Centrifugating, taking the supernatant, and then measuring the optical density (OD value) at 540 nm by spectrophotometer.

HCMV infected mice [4] = test: Spleen and thymus gland indexes of HCMV infected mice; conditions: for Effect on weight of the immune organs of HCMV infected mice (in words): thymus glands and spleens; for Effect on weight of the immune organs of HCMV infected mice (in words) / Spleen indexes / Thymus gland indexes: day 21
Procedure: as §1, §2
Thymus glands and spleens are important immune organs, with the organ indexes reflecting the strength of immune functions of organisms to a certain degree. The thymus glands have the main functions of generating T-lymphocytes and secreting thymosin, and mainly take part in cellular immunity; and abundant lymphocytes and macrophages are contained in the spleens. The weight of the thymus glands and the spleens is related to functions thereof as well as the quantity of immune cells therein, and the height depends on the proliferation degree of the lymphocytes therein.

[5] = high-dosage group 0.3 mg/kg/d intragastric
[6] = low-dosage group 0.012 mg/kg/d intragastric
[7] = medium-dosage group 0.06 mg/kg/d intragastric
[8] = HCMV infected mice, high-dosage group 0.3 mg/kg/d intragastric
[9] = HCMV infected mice, low-dosage group 0.012 mg/kg/d intragastric
[10] = HCMV infected mice, medium-dosage group 0.06 mg/kg/d intragastric

Compound | IL-2 level compared with the model group (in words) (HCMV infected mice [1]) | IL-2 level compared with the positive drug control group (in words) (HCMV infected mice [1]) | IL-2 concentration (HCMV infected mice [1]; [5]) | IL-2 concentration (HCMV infected mice [1]; [6]) | IL-2 concentration (HCMV infected mice [1]; [7]) | Toxic symptoms, death and weight growth of treated HCMV infected mice (in words) (HCMV infected mice [2]) | Average animal weight (g) Termination of treatment (HCMV infected mice [2]; [5]) | Average animal weight (g) Termination of treatment (HCMV infected mice [2]; [6]) | Average animal weight (g) Termination of treatment (HCMV infected mice [2]; [7]) | Animal number (n) Termination of treatment (HCMV infected mice [2]; [5]) | Animal number (n) Termination of treatment (HCMV infected mice [2]; [6]) | Animal number (n) Termination of treatment (HCMV infected mice [2]; [7]) | Effect on weight of the immune organs of HCMV infected mice (in words) (HCMV infected mice [4]) | Level of serum hemolysin antibodies compared with the positive drug control group (in words) (HCMV infected mice [3]) | Hemolysin (OD value) (HCMV infected mice [3]; [5]) | Hemolysin (OD value) (HCMV infected mice [3]; [6]) | Hemolysin (OD value) (HCMV infected mice [3]; [7]) | also measured
Nc1nc(O)c2ncn(COC(CO)CO)c2n1 [Positive drug control group, ganciclovir, reference compound] | – | – | – | – | – | – | – | – | – | – | – | – | – | – | – | – | – | IL-2 concentration (HCMV infected mice [1]; ganciclovir 45.5 mg/kg/d): 24.54 ± 2.66 pg/mL; Average animal weight (g) Termination of treatment (HCMV infected mice [2]; ganciclovir 45.5 mg/kg/d): 26.9 ± 3.97 g; Survival number, weight growth and symptom expression compared with the test drug groups (in words) (HCMV infected mice [2]; ganciclovir 45.5 mg/kg/d): totally approximate to those of the large-dosage groups; Animal number (n) Termination of treatment (HCMV infected mice [2]; ganciclovir 45.5 mg/kg/d): 8; Hemolysin (OD value) (HCMV infected mice [3]; ganciclovir 45.5 mg/kg/d): 0.11 ± 0.04 OD value
20(R)-ginsenoside Rg3 8-N-butyrate [Ginsenoside rg3 derivatives] | higher than those of the model group | superior to that of the positive drug control group | 29.32 ± 4.09 pg/mL | 27.99 ± 5.38 pg/mL | 28.62 ± 4.21 pg/mL | mild toxic symptom, less death and good weight growth | 27.7 ± 1.84 g | 26.4 ± 0.18 g | 27.1 ± 0.49 g | 9 | 6 | 7 | obvious weight increasing effect | superior to that of the positive drug control group | 0.19 ± 0.11 OD value | 0.17 ± 0.08 OD value | 0.18 ± 0.07 OD value | –
CC(C)=CCC[C@](C)(O)[C@H]1CC[C@]2(C)[C@@H]1[C@H](O)C[C@@H]1[C@@]3(C)CC[C@H](O[C@@H]4O[C@H](CO)[C@@H](O)[C@H](O)[C@H]4O[C@@H]4O[C@H](CO)[C@@H](O)[C@H](O)[C@H]4O)C(C)(C)[C@@H]3CC[C@]12C [Ginsenoside rg3, 20(R)-ginsenoside Rg3] | higher than those of the model group | superior to that of the positive drug control group | 28.64 ± 4.66 pg/mL | 27.02 ± 6.39 pg/mL | 27.19 ± 5.60 pg/mL | mild toxic symptom, less death and good weight growth | 26.6 ± 1.83 g | 25.1 ± 0.11 g | 25.8 ± 0.54 g | 8 | 6 | 6 | obvious weight increasing effect | superior to that of the positive drug control group | 0.18 ± 0.03 OD value | 0.15 ± 0.08 OD value | 0.16 ± 0.05 OD value | Spleen indexes and thymus gland indexes compared with the model group (in words) (HCMV infected mice [4]; HCMV infected mice): significantly different from those of the model group; Spleen indexes (HCMV infected mice [4]; [8]): 0.061 ± 0.021; Thymus gland indexes (HCMV infected mice [4]; [8]): 0.031 ± 0.009; Spleen indexes (HCMV infected mice [4]; [9]): 0.056 ± 0.045; Thymus gland indexes (HCMV infected mice [4]; [9]): 0.027 ± 0.011; Spleen indexes (HCMV infected mice [4]; [10]): 0.057 ± 0.013; Thymus gland indexes (HCMV infected mice [4]; [10]): 0.029 ± 0.021

— patent US10675317B2, “Use of ginseng extract, ginsenoside and ginsenoside derivative in the preparation of medicine or health care product for treating cytomegalovirus infection disorders” (priority 2015, dated 2020)
